This assay addresses T1, human CB2R (Homo sapiens, UniProt P34972).
T1 construct: host or cells: CHO cells
Kind of assay: CB2R mediated modulation of cAMP synthesis. Format: cell-based. The settings on record: CHO cells expressing human CB2R; concentration at which 50% of the forskolin-stimulated cAMP synthesis was inhibited; 100% defined by 1 uM CP55940; read-out: CB2 EC50. The method, then: B. CB2R Mediated Modulation of Camp Synthesis:
Compounds of the invention were evaluated for their CB2 agonist or inverse agonistic activity in accordance with the following experimental method.
CHO cells expressing human CB2R (Euroscreen) were plated at a density of 5000 cells per well in 384 well plates and incubated overnight at 37° C. After removing the media, the cells were treated with test compounds diluted in stimulation buffer containing 1 mM IBMX, 0.25% BSA and 10 uM Forskolin. The assay was incubated for 30 minutes at 37° C. Cells were lysed and the cAMP concentration was measured using DiscoverX-XS cAMP kit, following the manufacturer's protocol. In this setting, agonists will decrease forskolin induced production of cAMP while inverse agonists will further increase forskolin induced production of cAMP. EC50 of agonists were calculated as follows. The maximal amount of cAMP produced by forskolin compared to the level of cAMP inhibited by 1 uM CP55940 is defined as 100%. The EC50 value of each test compound was determined as the concentration at which 50% of the forskolin-stimulated cAMP synthesis was inhibited. Data was analyzed using a four-parameter logistic model. (Model 205 of XLfit 4.0).

T1 sequence (P34972 whole entry): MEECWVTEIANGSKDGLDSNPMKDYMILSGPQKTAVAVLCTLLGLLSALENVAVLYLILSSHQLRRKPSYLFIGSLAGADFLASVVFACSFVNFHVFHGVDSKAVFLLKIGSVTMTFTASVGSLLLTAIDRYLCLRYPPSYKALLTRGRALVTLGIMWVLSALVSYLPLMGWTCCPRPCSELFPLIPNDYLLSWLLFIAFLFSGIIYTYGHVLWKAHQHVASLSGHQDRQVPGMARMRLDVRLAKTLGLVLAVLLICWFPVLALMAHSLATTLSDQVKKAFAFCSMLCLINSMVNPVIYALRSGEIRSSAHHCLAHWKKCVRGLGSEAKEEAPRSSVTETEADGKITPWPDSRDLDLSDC

Broadly, the EC50 is the concentration needed to bring the measured effect to its halfway point. For `Cn1nc(C(C)(C)C)cc1-c1nnc(C(C)(C)S(=O)(=O)C2CCOCC2)s1` [Example 42, 2-(5-tert-butyl-2-methyl-2H-pyrazol-3-yl)-5-[1-methyl-1-(tetrahydro-pyran-4-sulfonyl)-ethyl]-[1,3,4]thiadiazole], the EC50 was found to be 0.117 µM.

For `CC(C)(CO)c1cc(-c2nnc(C(C)(C)S(=O)(=O)c3ccc(F)cc3)s2)on1` [Example 43, 2-(5-{5-[1-(4-fluoro-benzenesulfonyl)-1-methyl-ethyl]-[1,3,4]thiadiazol-2-yl}-isoxazol-3-yl)-2-methyl-propan-1-ol], the EC50 worked out at 0.175 µM.

For `Cn1nc(C(C)(C)C)cc1-c1nnc(C(C)(C)S(=O)(=O)c2ccc(F)cc2)[nH]1` [Example 44, 3-(5-tert-butyl-2-methyl-2H-pyrazol-3-yl)-5-[1-(4-fluoro-benzenesulfonyl)-1-methyl-ethyl]-4H-[1,2,4]triazole], the EC50 amounted to 0.002 µM.

For the compound `CC(C)(C)c1cc(-c2nnc(C(C)(C)S(=O)(=O)c3ccc(F)cc3)[nH]2)on1` [Example 45, 3-(3-tert-butyl-isoxazol-5-yl)-5-[1-(4-fluoro-benzenesulfonyl)-1-methyl-ethyl]-4H-[1,2,4]triazole], the EC50 was found to be 0.255 µM.

As for `Cn1nc(C(C)(C)C)cc1-c1nnc(C(C)(C)S(=O)(=O)CC2CCOCC2)[nH]1` [Example 46, 3-(5-tert-butyl-2-methyl-2H-pyrazol-3-yl)-5-[1-methyl-1-(tetrahydro-pyran-4-ylmethanesulfonyl)-ethyl]-4H-[1,2,4]triazole], the EC50 came to 0.414 µM.

As for `Cn1nc(C(C)(C)C)cc1-c1nnc(C(C)(C)S(=O)(=O)Cc2ccc(F)cc2)[nH]1` [Example 48, 3-(5-tert-butyl-2-methyl-2H-pyrazol-3-yl)-5-[1-(4-fluoro-phenylmethanesulfonyl)-1-methyl-ethyl]-4H-[1,2,4]triazole], the EC50 stood at 0.129 µM.

As to `CC(C)(C)c1cc(-c2nnc(C(C)(C)S(=O)(=O)Cc3ccc(F)cc3)[nH]2)on1` [Example 49, 3-(3-tert-Butyl-isoxazol-5-yl)-5-[1-(4-fluoro-phenylmethanesulfonyl)-1-methyl-ethyl]-4H-[1,2,4]triazole], the EC50 is 0.293 µM.

Turning to `Cn1nc(C(C)(C)C)cc1-c1nnc(C(C)(C)S(=O)(=O)CC2CCC(O)CC2)[nH]1` (centres unmarked) [Example 51, 4-{2-[5-(5-tert-butyl-2-methyl-2H-pyrazol-3-yl)-4H-[1,2,4]triazol-3-yl]-propane-2-sulfonylmethyl}-cyclohexanol], the EC50 was determined as 0.459 µM.

For the origin of these results see patent publication US20120015988A1, “Sulfone Compounds Which Modulate The CB2 Receptor” (BOEHRINGER INGELHEIM INTERNATIONAL GMBH, priority 2008, published 2012).
